# Reference: patent US20230219963A1, “PYRROLO[2,3-D]PYRIMIDINE DERIVATIVES” (Pfizer Inc., priority 2020, published 2023)
# Target: T1, JAK3 (Homo sapiens, UniProt P52333)
# T1 sequence (P52333 1-1124): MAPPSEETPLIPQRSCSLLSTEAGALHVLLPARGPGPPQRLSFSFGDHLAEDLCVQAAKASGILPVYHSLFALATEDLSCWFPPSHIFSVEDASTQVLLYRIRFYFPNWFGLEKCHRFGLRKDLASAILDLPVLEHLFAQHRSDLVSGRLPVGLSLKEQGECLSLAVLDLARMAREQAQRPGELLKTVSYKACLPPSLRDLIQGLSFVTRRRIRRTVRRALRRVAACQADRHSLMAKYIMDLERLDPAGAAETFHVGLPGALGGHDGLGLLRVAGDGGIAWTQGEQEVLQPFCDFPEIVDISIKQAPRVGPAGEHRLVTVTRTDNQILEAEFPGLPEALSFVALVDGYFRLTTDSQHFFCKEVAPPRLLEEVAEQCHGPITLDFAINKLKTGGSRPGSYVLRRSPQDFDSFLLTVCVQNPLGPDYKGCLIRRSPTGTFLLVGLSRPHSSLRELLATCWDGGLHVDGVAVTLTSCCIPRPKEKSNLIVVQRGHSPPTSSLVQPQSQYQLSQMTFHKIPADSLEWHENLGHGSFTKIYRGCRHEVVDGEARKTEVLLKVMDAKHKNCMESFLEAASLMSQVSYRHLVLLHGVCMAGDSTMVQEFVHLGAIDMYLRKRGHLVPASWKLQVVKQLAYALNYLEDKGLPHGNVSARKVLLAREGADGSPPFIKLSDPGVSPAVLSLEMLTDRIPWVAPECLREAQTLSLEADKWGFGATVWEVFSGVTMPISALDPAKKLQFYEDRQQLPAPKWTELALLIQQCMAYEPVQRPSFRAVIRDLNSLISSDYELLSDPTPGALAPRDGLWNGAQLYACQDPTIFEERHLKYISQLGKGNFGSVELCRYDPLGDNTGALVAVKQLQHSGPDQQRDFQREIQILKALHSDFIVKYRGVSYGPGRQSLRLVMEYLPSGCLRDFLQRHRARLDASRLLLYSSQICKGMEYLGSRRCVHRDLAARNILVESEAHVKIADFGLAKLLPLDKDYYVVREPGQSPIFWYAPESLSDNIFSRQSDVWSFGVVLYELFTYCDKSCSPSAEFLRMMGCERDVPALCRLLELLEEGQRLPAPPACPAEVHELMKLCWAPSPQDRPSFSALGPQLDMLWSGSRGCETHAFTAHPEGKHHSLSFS
# Assay: JAK Caliper Enzyme Assay at 1 mM ATP (JAK3)
# Format: biochemical
# Protocol: JAK Caliper Enzyme Assay at 1 mM ATP
# Test article was solubilized in dimethyl sulfoxide (DMSO) to a stock concentration of 30 mM. An 11-point half log dilution series was created in DMSO with a top concentration of 600 μM. […] The compound plates were diluted 1 to 60 resulting in a top final assay compound concentration of 10 μM and a 2% DMSO concentration. Test article and assay controls were added to a 384-well plate. Reaction mixtures contained 20 mM HEPES, pH 7.4, 10 mM magnesium chloride, 0.01% bovine serum albumin (BSA), 0.0005% Tween 20, 1 mM ATP and 1 μM peptide substrate. […] The assays were initiated by the addition of 20 nM JAK1, 1 nM JAK2, 1 nM JAK3 or 1 nM TYK2 enzyme and were incubated at room temperature for three hours for JAK1, 60 minutes for JAK2, 75 minutes for JAK3 or 135 minutes for TYK2. Enzyme concentrations and incubation times were optimized for each new enzyme preps and were modified slightly over time to ensure 20%-30% phosphorylation. The assays were stopped with a final concentration of 10 mM EDTA, 0.1% Coating Reagent and 100 mM HEPES, pH=7.4. The assay plates were placed on a Caliper Life Science Lab Chip 3000 (LC3000) instrument, and each well was sampled using appropriate separation conditions to measure the unphosphorylated and phosphorylated peptide.
row,IC50 [µM],Structure (SMILES)
1,> 10,"C[C@H](O)CS(=O)(=O)N[C@H]1C[C@@H](N(C)c2ncnc3[nH]ccc23)C1 (single isomer, unassigned) [IA (M2)]"
2,> 10,"C[C@@H](O)CS(=O)(=O)N[C@H]1C[C@@H](N(C)c2ncnc3[nH]ccc23)C1 (single isomer, unassigned) [IC (M3)]"
3,> 10,"CN(c1ncnc2[nH]ccc12)[C@H]1C[C@@H](NS(=O)(=O)CCCO)C1 [IB (M1), 3-Hydroxy-N-(cis-3-(methyl(7H-pyrrolo[2,3-d]pyrimidin-4-yl)amino)cyclobutyl)propane-1-sulfonamide]"
